Laboratory results: patent US20050197350A1, “Novel quinoline, tetrahydroquinazoline, and pyrimidine derivatives and methods of treatment related to the use thereof” (TAISHO PHARMACEUTICAL CO., LTD., priority 2003, published 2005)

Each molecule was assayed on MCH receptors (assay: MCH receptor activity class (method not given)). Settings: class by percent of control at 10^-7 M or IC50.
With CN(C)c1nc(N[C@H]2CC[C@@H](NC(=S)Nc3ccc(I)cc3)CC2)nc2c1CCCC2 [compound 1752] the class was 2 (Class 2: The value of percent of control at 10^−7 M was from 40% to 60% or the value of IC′50 was from 50 nM to 200 nM.).
For CN(C)c1nc(N[C@H]2CC[C@@H](NC(=S)Nc3c(Cl)cc(Cl)cc3Cl)CC2)nc2c1CCCC2 [compound 1754], the class was 2 (Class 2: The value of percent of control at 10^−7 M was from 40% to 60% or the value of IC′50 was from 50 nM to 200 nM.).
Cc1cc(C)c(NC(=S)N[C@H]2CC[C@@H](Nc3nc4c(c(N(C)C)n3)CCCC4)CC2)c(C)c1 [compound 1755] was tested, and the class was 1 (Class 1: The value of percent of control at 10^−7 M was less than 40% or the value of IC50 was less than 50 nM.).
For Cc1ccc(NC(=S)N[C@H]2CC[C@@H](Nc3nc4c(c(N(C)C)n3)CCCC4)CC2)c(C)c1 [compound 1756], the class was 2 (Class 2: The value of percent of control at 10^−7 M was from 40% to 60% or the value of IC′50 was from 50 nM to 200 nM.).
With CCc1cccc(CC)c1NC(=S)N[C@H]1CC[C@@H](Nc2nc3c(c(N(C)C)n2)CCCC3)CC1 [compound 1757] the class was 1 (Class 1: The value of percent of control at 10^−7 M was less than 40% or the value of IC50 was less than 50 nM.).
With Cc1ccc(NC(=S)N[C@H]2CC[C@@H](Nc3nc4c(c(N(C)C)n3)CCCC4)CC2)c(Br)c1 [compound 1758] the class was 3 (Class 3 The value of percent of control at 10^−7 M was more than 60% or the value of IC50 was more than 200 nM.).
In the case of CN(C)c1nc(N[C@H]2CC[C@@H](NC(=S)NCc3ccccc3Cl)CC2)nc2c1CCCC2 [compound 1759], the class was 3 (Class 3 The value of percent of control at 10^−7 M was more than 60% or the value of IC50 was more than 200 nM.).
CCc1cccc(C)c1NC(=S)N[C@H]1CC[C@@H](Nc2nc3c(c(N(C)C)n2)CCCC3)CC1 [compound 1760] was tested, and the class was 3 (Class 3 The value of percent of control at 10^−7 M was more than 60% or the value of IC50 was more than 200 nM.).
CC(C)c1ccccc1NC(=S)N[C@H]1CC[C@@H](Nc2nc3c(c(N(C)C)n2)CCCC3)CC1 [compound 1761] was tested, and the class was 3 (Class 3 The value of percent of control at 10^−7 M was more than 60% or the value of IC50 was more than 200 nM.).
COC(=O)c1cccc(NC(=S)N[C@H]2CC[C@@H](Nc3nc4c(c(N(C)C)n3)CCCC4)CC2)c1 [compound 1762] was tested, and the class was 3 (Class 3 The value of percent of control at 10^−7 M was more than 60% or the value of IC50 was more than 200 nM.).
For Cc1cc(Br)cc(C)c1NC(=S)N[C@H]1CC[C@@H](Nc2nc3c(c(N(C)C)n2)CCCC3)CC1 [compound 1763, N-(4-bromo-2,6-dimethylphenyl)-N′-(cis-4-{[4-(dimethylamino)-5,6,7,8-tetrahydroquinazolin-2-yl]amino}cyclohexyl)thiourea], the class was 1 (Class 1: The value of percent of control at 10^−7 M was less than 40% or the value of IC50 was less than 50 nM.).
Cc1cc(Br)ccc1NC(=S)N[C@H]1CC[C@@H](Nc2nc3c(c(N(C)C)n2)CCCC3)CC1 [compound 1764, N-(4-bromo-2-methylphenyl)-N′-(cis-4-{[4-(dimethylamino)-5,6,7,8-tetrahydroquinazolin-2-yl]amino}cyclohexyl)thiourea] was tested, and the class was 1 (Class 1: The value of percent of control at 10^−7 M was less than 40% or the value of IC50 was less than 50 nM.).
In the case of CN(C)c1nc(N[C@H]2CC[C@@H](NC(=S)Nc3ccc(Br)cc3C(F)(F)F)CC2)nc2c1CCCC2 [compound 1765], the class was 1 (Class 1: The value of percent of control at 10^−7 M was less than 40% or the value of IC50 was less than 50 nM.).
In the case of Cc1cc(Cl)ccc1NC(=S)N[C@H]1CC[C@@H](Nc2nc3c(c(N(C)C)n2)CCCC3)CC1 [compound 1766, N-(4-chloro-2-methylphenyl)-N′-(cis-4-{[4-(dimethylamino)-5,6,7,8-tetrahydroquinazolin-2-yl]amino}cyclohexyl)thiourea], the class was 1 (Class 1: The value of percent of control at 10^−7 M was less than 40% or the value of IC50 was less than 50 nM.).
With CN(C)c1nc(N[C@H]2CC[C@@H](NC(=S)NCc3cccc4ccccc34)CC2)nc2c1CCCC2 [compound 1767] the class was 3 (Class 3 The value of percent of control at 10^−7 M was more than 60% or the value of IC50 was more than 200 nM.).
In the case of COc1cccc(CNC(=S)N[C@H]2CC[C@@H](Nc3nc4c(c(N(C)C)n3)CCCC4)CC2)c1OC [compound 1768], the class was 3 (Class 3 The value of percent of control at 10^−7 M was more than 60% or the value of IC50 was more than 200 nM.).
With Cc1cc(C)c(NC(=S)N[C@H]2CC[C@@H](Nc3nc4c(c(N(C)C)n3)CCCC4)CC2)cc1C [compound 1769] the class was 3 (Class 3 The value of percent of control at 10^−7 M was more than 60% or the value of IC50 was more than 200 nM.).
In the case of CN(C)c1nc(N[C@H]2CC[C@@H](NC(=S)Nc3ccccc3-c3ccccc3)CC2)nc2c1CCCC2 [compound 1770], the class was 3 (Class 3 The value of percent of control at 10^−7 M was more than 60% or the value of IC50 was more than 200 nM.).
With Cc1cc([N+](=O)[O-])ccc1NC(=S)N[C@H]1CC[C@@H](Nc2nc3c(c(N(C)C)n2)CCCC3)CC1 [compound 1771] the class was 3 (Class 3 The value of percent of control at 10^−7 M was more than 60% or the value of IC50 was more than 200 nM.).
In the case of CN(C)c1nc(N[C@H]2CC[C@@H](NC(=S)NCc3cccc(Cl)c3)CC2)nc2c1CCCC2 [compound 1772], the class was 3 (Class 3 The value of percent of control at 10^−7 M was more than 60% or the value of IC50 was more than 200 nM.).
In the case of Cc1cc(F)ccc1NC(=S)N[C@H]1CC[C@@H](Nc2nc3c(c(N(C)C)n2)CCCC3)CC1 [compound 1775], the class was 2 (Class 2: The value of percent of control at 10^−7 M was from 40% to 60% or the value of IC′50 was from 50 nM to 200 nM.).
With COc1ccc(NC(=S)N[C@H]2CC[C@@H](Nc3nc4c(c(N(C)C)n3)CCCC4)CC2)c(C)c1 [compound 1776] the class was 2 (Class 2: The value of percent of control at 10^−7 M was from 40% to 60% or the value of IC′50 was from 50 nM to 200 nM.).
With COc1cc(OC)c(NC(=S)N[C@H]2CC[C@@H](Nc3nc4c(c(N(C)C)n3)CCCC4)CC2)cc1Cl [compound 1777] the class was 1 (Class 1: The value of percent of control at 10^−7 M was less than 40% or the value of IC50 was less than 50 nM.).
In the case of C[C@@H](NC(=S)N[C@H]1CC[C@@H](Nc2nc3c(c(N(C)C)n2)CCCC3)CC1)c1ccccc1 [compound 1778], the class was 3 (Class 3 The value of percent of control at 10^−7 M was more than 60% or the value of IC50 was more than 200 nM.).
Cc1cccc(NC(=S)N[C@H]2CC[C@@H](Nc3nc4c(c(N(C)C)n3)CCCC4)CC2)c1C [compound 1779] was tested, and the class was 3 (Class 3 The value of percent of control at 10^−7 M was more than 60% or the value of IC50 was more than 200 nM.).
CN(C)c1nc(N[C@H]2CC[C@@H](NC(=S)Nc3c(F)cc(Br)cc3Br)CC2)nc2c1CCCC2 [compound 1780, N-(2,4-dibromo-6-fluorophenyl)-N′-(cis-4-{[4-(dimethylamino)-5,6,7,8-tetrahydroquinazolin-2-yl]amino}cyclohexyl)thiourea] was tested, and the class was 2 (Class 2: The value of percent of control at 10^−7 M was from 40% to 60% or the value of IC′50 was from 50 nM to 200 nM.).
For Cc1cc(Cl)cc(Cl)c1NC(=S)N[C@H]1CC[C@@H](Nc2nc3c(c(N(C)C)n2)CCCC3)CC1 [compound 1781, N-(2,4-dichloro-6-methylphenyl)-N′-(cis-4-{[4-(dimethylamino)-5,6,7,8-tetrahydroquinazolin-2-yl]amino}cyclohexyl)thiourea], the class was 1 (Class 1: The value of percent of control at 10^−7 M was less than 40% or the value of IC50 was less than 50 nM.).
For CCOc1ccccc1NC(=S)N[C@H]1CC[C@@H](Nc2nc3c(c(N(C)C)n2)CCCC3)CC1 [compound 1782], the class was 2 (Class 2: The value of percent of control at 10^−7 M was from 40% to 60% or the value of IC′50 was from 50 nM to 200 nM.).
In the case of Cc1cccc(C(C)C)c1NC(=S)N[C@H]1CC[C@@H](Nc2nc3c(c(N(C)C)n2)CCCC3)CC1 [compound 1783], the class was 3 (Class 3 The value of percent of control at 10^−7 M was more than 60% or the value of IC50 was more than 200 nM.).
CN(C)c1nc(N[C@H]2CC[C@@H](NC(=S)Nc3ccc4c(c3)OCCO4)CC2)nc2c1CCCC2 [compound 1784] was tested, and the class was 3 (Class 3 The value of percent of control at 10^−7 M was more than 60% or the value of IC50 was more than 200 nM.).
For CN(C)c1nc(N[C@H]2CC[C@@H](NC(=S)Nc3ccc4c(c3)OCO4)CC2)nc2c1CCCC2 [compound 1785], the class was 3 (Class 3 The value of percent of control at 10^−7 M was more than 60% or the value of IC50 was more than 200 nM.).
In the case of Cc1c(Cl)cccc1NC(=S)N[C@H]1CC[C@@H](Nc2nc3c(c(N(C)C)n2)CCCC3)CC1 [compound 1786], the class was 3 (Class 3 The value of percent of control at 10^−7 M was more than 60% or the value of IC50 was more than 200 nM.).
For CN(C)c1nc(N[C@H]2CC[C@@H](NC(=S)Nc3ccc(Br)cc3OC(F)(F)F)CC2)nc2c1CCCC2 [compound 1787], the class was 2 (Class 2: The value of percent of control at 10^−7 M was from 40% to 60% or the value of IC′50 was from 50 nM to 200 nM.).
With COc1cc(NC(=S)N[C@H]2CC[C@@H](Nc3nc4c(c(N(C)C)n3)CCCC4)CC2)c(OC)cc1Cl [compound 1788] the class was 2 (Class 2: The value of percent of control at 10^−7 M was from 40% to 60% or the value of IC′50 was from 50 nM to 200 nM.).
Cc1onc(-c2ccccc2)c1NC(=S)N[C@H]1CC[C@@H](Nc2nc3c(c(N(C)C)n2)CCCC3)CC1 [compound 1789] was tested, and the class was 3 (Class 3 The value of percent of control at 10^−7 M was more than 60% or the value of IC50 was more than 200 nM.).
For CN(C)c1nc(NC2CCC(NC(=S)NC3CC4CCC3C4)CC2)nc2c1CCCC2 (centres unmarked) [compound 1790], the class was 3 (Class 3 The value of percent of control at 10^−7 M was more than 60% or the value of IC50 was more than 200 nM.).
COC(=O)c1scc(C)c1NC(=S)N[C@H]1CC[C@@H](Nc2nc3c(c(N(C)C)n2)CCCC3)CC1 [compound 1791] was tested, and the class was 3 (Class 3 The value of percent of control at 10^−7 M was more than 60% or the value of IC50 was more than 200 nM.).
COC(=O)c1sccc1NC(=S)N[C@H]1CC[C@@H](Nc2nc3c(c(N(C)C)n2)CCCC3)CC1 [compound 1792] was tested, and the class was 3 (Class 3 The value of percent of control at 10^−7 M was more than 60% or the value of IC50 was more than 200 nM.).
